Experimental data: publication PMC8706783 (Pharmaceutics, 2021)
Like-named read-outs stand apart in the source and are kept apart here.

Columns and labels:
UGT1A1 = target: T1, UGT1A1 (Homo sapiens, UniProt P22309); assay: Enzyme inhibition assay, UGT1A1; type: in vitro ADME; details: for IC50: HLM, UGT1A1 SN38 glucuronidation
T1 construct: from tissue
T1 sequence (P22309 26-533): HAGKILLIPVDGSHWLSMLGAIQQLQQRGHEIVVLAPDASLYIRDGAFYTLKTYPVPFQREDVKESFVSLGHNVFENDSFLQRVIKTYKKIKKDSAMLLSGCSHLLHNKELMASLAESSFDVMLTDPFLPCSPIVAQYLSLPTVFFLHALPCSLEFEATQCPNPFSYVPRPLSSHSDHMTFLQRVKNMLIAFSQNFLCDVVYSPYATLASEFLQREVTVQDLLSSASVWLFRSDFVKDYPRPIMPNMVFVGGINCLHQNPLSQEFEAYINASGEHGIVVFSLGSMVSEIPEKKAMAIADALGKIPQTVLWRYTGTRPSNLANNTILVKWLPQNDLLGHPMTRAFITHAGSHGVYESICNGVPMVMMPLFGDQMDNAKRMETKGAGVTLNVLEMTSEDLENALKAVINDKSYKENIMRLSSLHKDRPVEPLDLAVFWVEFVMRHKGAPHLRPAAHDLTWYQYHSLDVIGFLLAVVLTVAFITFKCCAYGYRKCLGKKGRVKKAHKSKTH

UGT1A4 = target: T2, UGT1A4 (Homo sapiens, UniProt P22310); assay: Enzyme inhibition assay, UGT1A4
T2 sequence (P22310 29-534): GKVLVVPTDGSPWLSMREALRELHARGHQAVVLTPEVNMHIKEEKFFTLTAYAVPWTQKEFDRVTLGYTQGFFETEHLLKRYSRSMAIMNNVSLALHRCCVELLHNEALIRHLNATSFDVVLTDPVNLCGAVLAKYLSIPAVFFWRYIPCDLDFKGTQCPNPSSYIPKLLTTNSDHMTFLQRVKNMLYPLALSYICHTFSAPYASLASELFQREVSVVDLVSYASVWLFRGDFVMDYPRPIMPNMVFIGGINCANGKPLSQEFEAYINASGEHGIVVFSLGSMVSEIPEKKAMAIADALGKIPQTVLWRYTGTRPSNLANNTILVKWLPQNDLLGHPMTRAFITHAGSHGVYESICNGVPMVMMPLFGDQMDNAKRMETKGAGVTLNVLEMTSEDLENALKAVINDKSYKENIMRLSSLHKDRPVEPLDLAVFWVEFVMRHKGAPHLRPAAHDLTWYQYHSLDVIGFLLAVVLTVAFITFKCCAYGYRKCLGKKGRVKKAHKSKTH

UGT1A3 = target: T3, UGT1A3 (Homo sapiens, UniProt P35503); assay: Enzyme inhibition assay, UGT1A3; type: in vitro ADME; parameters: from tissue; details: HLM; UGT1A3 chenodeoxycholic acid 24 O-glucuronidation
T3 sequence (P35503 29-534): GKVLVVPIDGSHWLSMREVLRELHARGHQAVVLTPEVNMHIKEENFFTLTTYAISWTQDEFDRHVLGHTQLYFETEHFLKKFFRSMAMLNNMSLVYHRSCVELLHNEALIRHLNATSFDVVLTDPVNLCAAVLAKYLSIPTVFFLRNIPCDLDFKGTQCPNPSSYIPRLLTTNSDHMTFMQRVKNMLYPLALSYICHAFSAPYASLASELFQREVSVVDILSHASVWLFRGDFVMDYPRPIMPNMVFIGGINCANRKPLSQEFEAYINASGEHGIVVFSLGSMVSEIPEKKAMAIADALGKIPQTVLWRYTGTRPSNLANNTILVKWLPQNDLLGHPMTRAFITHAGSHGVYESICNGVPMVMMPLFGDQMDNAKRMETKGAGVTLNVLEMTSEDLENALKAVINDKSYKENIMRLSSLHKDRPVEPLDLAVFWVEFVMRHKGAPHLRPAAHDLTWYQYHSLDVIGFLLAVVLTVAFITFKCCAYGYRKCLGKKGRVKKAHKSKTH

UGT1A7 = target: T4, UGT1A7 (Homo sapiens, UniProt Q9HAW7); assay: Enzyme inhibition assay, UGT1A7
T4 sequence (Q9HAW7 26-530): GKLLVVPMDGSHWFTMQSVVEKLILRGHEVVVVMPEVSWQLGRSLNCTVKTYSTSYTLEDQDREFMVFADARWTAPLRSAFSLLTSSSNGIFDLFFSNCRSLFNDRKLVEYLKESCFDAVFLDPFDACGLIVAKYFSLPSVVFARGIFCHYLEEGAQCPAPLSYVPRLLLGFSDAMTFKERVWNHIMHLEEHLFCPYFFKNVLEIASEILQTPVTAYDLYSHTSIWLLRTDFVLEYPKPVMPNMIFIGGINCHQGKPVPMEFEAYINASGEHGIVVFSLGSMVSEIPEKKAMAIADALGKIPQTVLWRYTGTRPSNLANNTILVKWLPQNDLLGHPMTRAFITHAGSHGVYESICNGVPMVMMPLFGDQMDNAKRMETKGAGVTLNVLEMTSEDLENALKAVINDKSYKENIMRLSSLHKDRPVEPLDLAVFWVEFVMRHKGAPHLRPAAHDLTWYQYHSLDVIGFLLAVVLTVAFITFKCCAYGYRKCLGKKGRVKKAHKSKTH

[1] = women, cited from earlier work; for Cmax: plasma, ref IPM 028
UGT1A8 = target: T5, UGT1A8 (Homo sapiens, UniProt Q9HAW9); assay: Enzyme inhibition assay, UGT1A8
T5 sequence (Q9HAW9 26-530): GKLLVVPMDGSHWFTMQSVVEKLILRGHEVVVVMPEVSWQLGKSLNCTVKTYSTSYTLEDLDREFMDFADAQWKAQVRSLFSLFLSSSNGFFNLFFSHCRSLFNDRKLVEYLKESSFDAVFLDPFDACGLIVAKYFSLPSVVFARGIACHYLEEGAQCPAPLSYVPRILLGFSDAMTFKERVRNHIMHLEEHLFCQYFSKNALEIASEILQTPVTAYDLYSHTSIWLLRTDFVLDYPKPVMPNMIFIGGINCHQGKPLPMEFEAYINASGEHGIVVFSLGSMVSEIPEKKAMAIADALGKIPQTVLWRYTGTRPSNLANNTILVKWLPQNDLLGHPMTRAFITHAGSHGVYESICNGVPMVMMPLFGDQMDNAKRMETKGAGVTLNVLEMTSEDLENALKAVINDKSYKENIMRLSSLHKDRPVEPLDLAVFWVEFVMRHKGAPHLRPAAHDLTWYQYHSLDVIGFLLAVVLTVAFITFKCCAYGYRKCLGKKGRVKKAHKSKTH

CYP1B1 = target: T6, CYP1B1 (Homo sapiens, UniProt Q16678); assay: Enzyme inhibition assay, CYP1B1; type: in vitro ADME; details: Recombinant CYP1B1; 7-ethoxyresorufin O-deethylation
T6 construct: purchased Corning Inc
T6 sequence (Q16678 whole entry): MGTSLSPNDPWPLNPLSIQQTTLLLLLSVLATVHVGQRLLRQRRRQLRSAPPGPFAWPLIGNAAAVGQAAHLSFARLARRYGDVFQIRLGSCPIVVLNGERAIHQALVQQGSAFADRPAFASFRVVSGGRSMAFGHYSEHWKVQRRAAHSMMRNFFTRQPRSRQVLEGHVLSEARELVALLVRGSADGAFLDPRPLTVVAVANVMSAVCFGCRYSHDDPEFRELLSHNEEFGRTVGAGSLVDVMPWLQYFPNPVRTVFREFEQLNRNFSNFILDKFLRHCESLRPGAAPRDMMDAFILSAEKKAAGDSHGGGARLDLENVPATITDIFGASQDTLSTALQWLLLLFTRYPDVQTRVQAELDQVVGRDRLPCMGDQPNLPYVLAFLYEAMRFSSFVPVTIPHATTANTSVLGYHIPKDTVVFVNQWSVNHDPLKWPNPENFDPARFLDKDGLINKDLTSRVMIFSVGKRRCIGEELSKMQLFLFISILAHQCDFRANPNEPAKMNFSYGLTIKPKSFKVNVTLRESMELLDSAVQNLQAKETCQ

Cc1cc(C)c(Nc2ccnc(Nc3ccc(C#N)cc3)n2)c(C)c1 [DPV, Dapivirine]
IC50 (UGT1A1; read-out: IC50): 5.2 µM
IC50 (UGT1A4): 9.45 µM
IC50 (UGT1A3): 17 µM
IC50 (UGT1A7): 24.2 µM
increase in systemic exposure to DPV ([1]; concomitant use of DPV ring and MIC vaginal capsule compared to DPV ring alone): 20%
Cmax ([1]; after DPV ring administration alone): 0.462 ± 0.288 ng/mL
IC50 (UGT1A8): > 30 µM
IC50 (CYP1B1): 1.55 µM

Clc1ccc(COC(Cn2ccnc2)c2ccc(Cl)cc2Cl)c(Cl)c1 (centres unmarked) [MIC, miconazole]
IC50 (UGT1A1): Apparent activation with MIC
Emax at 15 min, 30 µM (UGT1A1; human, human liver microsomes, probe SN38 (0.5 µM), SN38 glucuronidation, read-out: maximum activation of SN38 glucuronidation): 607%
IC50 (UGT1A4): 26.5 µM
IC50 (UGT1A3): 13.6 µM
IC50 (UGT1A7): > 30 µM
Cmax ([1]; after MIC vaginal capsule alone): 7.61 ± 3.13 ng/mL
IC50 (UGT1A8; Recombinant UGT1A8, 4-methylumbelliferone O-glucuronidation): Apparent activation with MIC
Emax at 45 min (UGT1A8; human, recombinant UGT1A8, probe 4-methylumbelliferone (2 µM), glucuronidation): 173%
IC50 (CYP1B1): 0.47 µM
